PMC7034070, “Synthesis, anti-inflammatory, cytotoxic, and COX-1/2 inhibitory activities of cyclic imides bearing 3-benzenesulfonamide, oxime, and β-phenylalanine scaffolds: a molecular docking study” (Journal of Enzyme Inhibition and Medicinal Chemistry, 2020)
Several values for one entry are separate records, joined by “and”; a condition that tells them apart may be missing. Equal entries are not always repeated.

Legend:
[1] = system: CAKI-1 (Renal Cancer); assay: NCI 59 cell line panel, single dose; assay type: cell-based; settings: CAKI-1, one dose 10.0 μM
[2] = system: NCI-H522 (NSC Lung Cancer); assay: NCI 59 cell line panel, single dose; assay type: cell-based; settings: NCI-H522, one dose 10.0 μM
[3] = system: 59 cancer cell lines; assay: full NCI 59 cell line panel assay, single dose; assay type: cell-based; settings: one dose 10.0 μM, 59 cell lines
[4] = system: UO-31 (Renal Cancer); assay: NCI 59 cell line panel, single dose; assay type: cell-based; settings: UO-31, one dose 10.0 μM
[5] = system: carrageenan induced rat paw oedema; assay: rat carrageenan-induced foot paw oedema model; assay type: in vivo; settings: for Mean % increase in paw weight ± SEM / % Inhibition of paw oedema from control group: 2 h after carrageenan; for Mean % increase in paw weight ± SEM: control group 165.6 ± 1.6; for % Inhibition of paw oedema from control group: single dose screen (Table 1)
Description: Anti-inflammatory assessment of the newly synthesised compounds was carried out using an in vivo rat carrageenan-induced foot paw oedema model, as reported previously[16]^,[17].

[6] = biological target: T1, COX-2 (Ovis aries, UniProt P79208); assay: colorimetric COX (ovine) inhibitor screening assay kit; assay type: biochemical; settings: for SI, selectivity index (COX-1 IC50/COX-2 IC50): ovine COX-1/COX-2; for IC50: ovine COX-2, mean of two determinations
T1 construct: purchased Cayman Chemicals Inc., Ann Arbour, MI
T1 sequence (P79208 17-603): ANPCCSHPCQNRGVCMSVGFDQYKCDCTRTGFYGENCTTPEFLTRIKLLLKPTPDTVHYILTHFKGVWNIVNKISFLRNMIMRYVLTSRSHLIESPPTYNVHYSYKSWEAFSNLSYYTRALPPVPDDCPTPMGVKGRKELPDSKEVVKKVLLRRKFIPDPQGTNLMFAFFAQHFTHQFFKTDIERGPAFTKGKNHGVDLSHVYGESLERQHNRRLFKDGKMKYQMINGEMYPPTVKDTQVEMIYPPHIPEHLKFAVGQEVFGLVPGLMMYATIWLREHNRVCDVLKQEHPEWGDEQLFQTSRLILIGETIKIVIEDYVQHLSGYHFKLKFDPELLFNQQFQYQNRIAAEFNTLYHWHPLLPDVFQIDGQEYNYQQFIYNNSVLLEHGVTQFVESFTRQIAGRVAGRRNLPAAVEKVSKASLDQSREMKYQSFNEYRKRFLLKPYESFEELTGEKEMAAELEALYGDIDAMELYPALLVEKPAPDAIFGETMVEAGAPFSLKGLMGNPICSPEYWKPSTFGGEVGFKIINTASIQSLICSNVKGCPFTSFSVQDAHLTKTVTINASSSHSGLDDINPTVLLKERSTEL
Description: (§1) To determine the relative ability of the test compounds and reference drugs to inhibit COX-1/COX-2 isozymes, we used the colorimetric COX (ovine) inhibitor screening assay kit (Cayman Chemicals Inc., Ann Arbour, MI), according to the manufacturer’s instructions[3]^,[10]^,[11]^,[20].

[7] = biological target: T2, COX-1 (Ovis aries, UniProt P05979); assay: as above; assay type: biochemical; settings: ovine COX-1, mean of two determinations
T2 construct: purchased Cayman Chemicals Inc., Ann Arbour, MI
T2 sequence (P05979 25-600): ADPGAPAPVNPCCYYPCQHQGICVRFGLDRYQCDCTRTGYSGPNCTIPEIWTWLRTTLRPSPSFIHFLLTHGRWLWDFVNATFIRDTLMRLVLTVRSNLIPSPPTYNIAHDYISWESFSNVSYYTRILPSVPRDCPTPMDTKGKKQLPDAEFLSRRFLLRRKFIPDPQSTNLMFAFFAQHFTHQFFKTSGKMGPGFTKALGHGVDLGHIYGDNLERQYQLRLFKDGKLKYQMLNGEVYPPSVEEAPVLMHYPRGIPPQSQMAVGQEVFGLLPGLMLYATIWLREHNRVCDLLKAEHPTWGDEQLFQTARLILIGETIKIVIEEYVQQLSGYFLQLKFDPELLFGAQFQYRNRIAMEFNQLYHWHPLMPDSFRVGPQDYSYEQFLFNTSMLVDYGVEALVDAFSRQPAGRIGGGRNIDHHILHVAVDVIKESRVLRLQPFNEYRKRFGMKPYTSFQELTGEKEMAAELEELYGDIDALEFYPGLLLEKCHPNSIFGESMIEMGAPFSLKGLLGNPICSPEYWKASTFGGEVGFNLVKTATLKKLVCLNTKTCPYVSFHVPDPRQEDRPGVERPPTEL
Description: as §1

[8] = system: SNB-75 (CNS Cancer); assay: NCI 59 cell line panel, single dose; assay type: cell-based; settings: SNB-75, one dose 10.0 μM
[9] = system: HOP-92 (NSC Lung Cancer); assay: NCI 59 cell line panel, single dose; assay type: cell-based; settings: HOP-92, one dose 10.0 μM
[10] = system: mice; assay: Ulcerogenicity measurement; assay type: in vivo
Description: Ulcerogenicity was evaluated according to a previously reported method[6]^a,[17]^,[18]. The number and total length of the ulcers for each animal were measured and their averages were calculated and used as the ulcer indices.

[11] = system: SF-539 (CNS Cancer); assay: NCI 59 cell line panel, single dose; settings: SF-539, one dose 10.0 μM
Description: (§2) These cell lines were obtained from nine different organs including leukaemia, non-small cell lung, colon, CNS, melanoma, ovarian, renal, prostate, and breast[19].

[12] = system: DU-145 (Prostate Cancer); assay: NCI 59 cell line panel, single dose; settings: DU-145, one dose 10.0 μM
Description: as §2

[13] = system: LOX IMVI (Melanoma); assay: NCI 59 cell line panel, single dose; settings: one dose 10.0 μM
Description: as §2

[14] = system: HCT-116 (Colon Cancer); assay: NCI 59 cell line panel, single dose; settings: HCT-116, one dose 10.0 μM
Description: as §2

[15] = system: T-47D (Breast Cancer); assay: NCI 59 cell line panel, single dose; settings: one dose 10.0 μM
[16] = system: U251 (CNS Cancer); assay: NCI 59 cell line panel, single dose; settings: U251, one dose 10.0 μM
Description: as §2

[17] = system: NCI-H23 (NSC Lung Cancer); assay: NCI 59 cell line panel, single dose; settings: NCI-H23, one dose 10.0 μM
Description: as §2

[18] = system: HT29 (Colon Cancer); assay: NCI 59 cell line panel, single dose; settings: HT29, one dose 10.0 μM
Description: as §2

[19] = system: PC-3 (Prostate Cancer); assay: NCI 59 cell line panel, single dose; assay type: cell-based; settings: PC-3, one dose 10.0 μM
[20] = system: PRMI-8226 (Leukaemia); assay: NCI 59 cell line panel, single dose; settings: PRMI-8226, one dose 10.0 μM
[21] = system: SF-295 (CNS Cancer); assay: NCI 59 cell line panel, single dose; settings: SF-295, one dose 10.0 μM
Description: as §2

[22] = system: MDA-MB-231/ATCC (Breast Cancer); assay: NCI 59 cell line panel, single dose; settings: one dose 10.0 μM
[23] = system: A498 (Renal Cancer); assay: NCI 59 cell line panel, single dose; settings: A498, one dose 10.0 μM
Description: as §2

[24] = system: NCI-H226 (NSC Lung Cancer); assay: NCI 59 cell line panel, single dose; settings: NCI-H226, one dose 10.0 μM
[25] = system: MDA-MB-468 (Breast Cancer); assay: NCI 59 cell line panel, single dose; settings: MDA-MB-468, one dose 10.0 μM
[26] = system: SR (Leukaemia); assay: NCI 59 cell line panel, single dose; settings: one dose 10.0 μM
[27] = system: MOLT-4 (Leukaemia); assay: NCI 59 cell line panel, single dose; settings: MOLT-4, one dose 10.0 μM
[28] = system: EKVX (NSC Lung Cancer); assay: NCI 59 cell line panel, single dose; settings: one dose 10.0 μM
[29] = system: HCT-15 (Colon Cancer); assay: NCI 59 cell line panel, single dose; settings: HCT-15, one dose 10.0 μM
Description: as §2

Structure (SMILES)	PCE (positive cytotoxic effect: cell lines with growth inhibition >10% / total number of cell lines) [3]	GI% [4] [%]	melting point [°C]	Mean % increase in paw weight ± SEM [5] [%]	% Inhibition of paw oedema from control group [5]	SI, selectivity index (COX-1 IC50/COX-2 IC50) [6]	IC50 [6] [µM]	IC50 [7] [µM]	GI% [8] [%]	also measured
NS(=O)(=O)c1cccc(N2C(=O)CCC2=O)c1 [Compound 2, 3-(2,5-Dioxopyrrolidin-1-yl)benzenesulfonamide]	3/59	13	195 to 197	53.2 ± 0.4	71.2% and 71.2 ± 0.5%	>192.3	0.26	> 50		GI% [1]: 12%; GI% [2]: 12%
NS(=O)(=O)c1cccc(N2C(=O)C3CC=CCC3C2=O)c1 (centres unmarked) [Compound 3, 3-(1,3-Dioxo-1,3,3a,4,7,7a-hexahydro-2H-isoindol-2-yl)benzenesulfonamide]	3/59	16	159 to 161	42.4 ± 0.2	77.0% and 77.0 ± 0.6%	>250.0	0.2	> 50	12	GI% [2]: 12%
CC(C)(C)c1ccc2c(c1)C(=O)N(c1cccc(S(N)(=O)=O)c1)C2=O [Compound 6, 3-(5-(tert-Butyl)-1,3-dioxoisoindolin-2-yl)benzenesulfonamide]	2/59		151 to 153	106.1 ± 0.9	40.9% and 40.9 ± 0.6%	>12.5	4	> 50	12	GI% [9]: 19%
NS(=O)(=O)c1cccc(N2C(=O)c3c(Cl)c(Cl)c(Cl)c(Cl)c3C2=O)c1 [Compound 8]	3/59	17		134.0 ± 0.9	26.9% and 26.9 ± 0.5%				13	GI% [9]: 11%
CC(=NO)c1ccc(N2C(=O)c3ccc([N+](=O)[O-])cc3C2=O)cc1 [Compound 18, 2-(4-(1-(Hydroxyimino)ethyl)phenyl)-5-nitroisoindoline-1,3-dione]			269 to 271	31.6 ± 0.4	82.9% and 82.9 ± 0.8%	>333.3	0.15	> 50		Percentage inhibition of paw oedema from control group ([5]; dose 45 mg/kg): 70.1%; Percentage inhibition of paw oedema from control group ([5]; dose 65 mg/kg): 82.9%; Percentage inhibition of paw oedema from control group ([5]; dose 80 mg/kg): 91.9%; ED50 ([5]; from three graded doses (45, 65, 80 mg/kg)): 35.4 mg/kg; Average number of ulcers ([10]; mice): 2; Mean sum of lengths of elongated ulcer ([10]; mice, ± SEM): 0.9 ± 0.08 mm; level of ulcerogenic activity (in words) ([10]; relative to diclofenac and celecoxib): very low levels of ulcerogenic activity
O=C(O)CC(c1ccccc1)N1C(=O)CCC1=O (centres unmarked) [Compound 21, 3-(2,5-Dioxopyrrolidin-1-yl)-3-phenylpropanoic acid]			259 to 261	98.9 ± 0.6	46.4% and 46.4 ± 0.3%	0.55	30.3	16.6		
O=C(O)CC(c1ccccc1)N1C(=O)c2ccc([N+](=O)[O-])cc2C1=O (centres unmarked) [Compound 28, 3-(5-Nitro-1,3-dioxoisoindolin-2-yl)-3-phenylpropanoic acid]			191 to 193	100.9 ± 0.8	42.5% and 42.5 ± 0.2%	0.61	30	18.2		
Cc1ccc(NC(=O)c2ccc(CN3CCN(C)CC3)cc2)cc1Nc1nccc(-c2cccnc2)n1 [Imatinib]	20/59									GI% [11]: 24.5%; GI% [12]: 14.4%; GI% [13]: 11.6%; GI% [14]: 18.6%; GI% [15]: 18.6%; GI% [16]: 10.6%; GI% [17]: 17.1%; GI% [18]: 47.1%; GI% [19]: 10.6%; GI% [20]: 12.6%; GI% [21]: 15.1%; GI% [22]: 11.2%; GI% [23]: 13.7%; GI% [24]: 10.6%; GI% [25]: 29.1%; GI% [26]: 14.6%; GI% [27]: 18.0%; GI% [28]: 15.7%; GI% [29]: 11.5%
